The test system of the assay is P388 leukemia ip, CD2F1 mice, survival T/C. Description: NCI In Vivo Anticancer Drug Screen. Data for tumor model P388 Leukemia (intraperitoneal) in CD2F1 (CDF1) mice. The following applies: endpoint: median survival time, higher = longer survival. Summed up: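 Mice carrying the transplanted tumor received test compound or vehicle. Survival was recorded in each group, and the value is the treated-group measurement divided by that of the vehicle-treated control group.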

[1] abbreviates: dose: 60.0 mg/kg/injection, schedule: Q01DX005 (ip), vehicle: saline with Tween-80.
[2] abbreviates: dose: 120.0 mg/kg/injection, schedule: Q01DX005 (ip), vehicle: saline with Tween-80.
Setting [3] is: dose: 240.0 mg/kg/injection, schedule: Q01DX005 (ip), vehicle: saline with Tween-80.
Setting [4] is: dose: 25.0 mg/kg/injection, schedule: Q01DX009 (ip), vehicle: saline with Tween-80.
The mark [5] stands for this setting: dose: 100.0 mg/kg/injection, schedule: Q01DX009 (ip), vehicle: saline with Tween-80.
[6] abbreviates: dose: 200.0 mg/kg/injection, schedule: Q01DX009 (ip), vehicle: saline with Tween-80.
[7] abbreviates: dose: 400.0 mg/kg/injection, schedule: Q01DX009 (ip), vehicle: saline with Tween-80.
[8] abbreviates: dose: 50.0 mg/kg/injection, schedule: Q01DX005 (ip), vehicle: saline with Tween-80.
Where [9] appears, read: dose: 100.0 mg/kg/injection, schedule: Q01DX005 (ip), vehicle: saline with Tween-80.
The mark [10] stands for this setting: dose: 200.0 mg/kg/injection, schedule: Q01DX005 (ip), vehicle: saline with Tween-80.
[11] abbreviates: dose: 60.0 mg/kg/injection, schedule: Q01DX005 (ip), vehicle: Klucel (hydroxypropylcellulose) (HPC).
The mark [12] stands for this setting: dose: 120.0 mg/kg/injection, schedule: Q01DX005 (ip), vehicle: Klucel (hydroxypropylcellulose) (HPC).
Where [13] appears, read: dose: 240.0 mg/kg/injection, schedule: Q01DX005 (ip), vehicle: Klucel (hydroxypropylcellulose) (HPC).
[14] abbreviates: dose: 50.0 mg/kg/injection, schedule: Q01DX005 (ip), vehicle: Klucel (hydroxypropylcellulose) (HPC).
The mark [15] stands for this setting: dose: 50.0 mg/kg/injection, schedule: Q01DX005 (ip), vehicle: saline.
Where [16] appears, read: dose: 100.0 mg/kg/injection, schedule: Q01DX005 (ip), vehicle: saline.
The mark [17] stands for this setting: dose: 200.0 mg/kg/injection, schedule: Q01DX005 (ip), vehicle: saline.
Where [18] appears, read: dose: 50.0 mg/kg/injection, schedule: Q01DX009 (ip), vehicle: saline.
Where [19] appears, read: dose: 100.0 mg/kg/injection, schedule: Q01DX009 (ip), vehicle: saline.

We go through 29 compounds from PubChem BioAssay AID330 (DTP/NCI, 2004).

SMILES strings stand for the structures. Where “and” joins values, the source holds several entries; their conditions need not be identical. Equal values may be shown once. Toxic doses and inconclusive results are not listed. Bridge positions count the residues as written; N and C are the ends. Peptide text beside a SMILES is read from it. I, II: the chains in the order shown. * marks the point of attachment. Cbz = O=C(OCc1ccccc1)*

With `CCC(=O)NC(N)=NC#N`, the T/C runs as follows: (dose: 60.0 mg/kg/injection, schedule: Q01DX005 (ip), vehicle: saline) 99 % of control; (dose: 120.0 mg/kg/injection, schedule: Q01DX005 (ip), vehicle: saline) 101 % of control; (dose: 240.0 mg/kg/injection, schedule: Q01DX005 (ip), vehicle: saline) 98 % of control.
In the case of `N#Cc1nc2c(nc1C#N)-c1ccccc1/C2=C1/C(=O)Cc2ccccc21`, the T/C by setting is: under setting [1], 98 % of control; under setting [2], 99 % of control; under setting [3], 102 % of control.
For `Nc1cc(Cl)nc(N)n1`, the T/C was 96 % of control under setting [4]; 97 % of control (dose: 50.0 mg/kg/injection, schedule: Q01DX009 (ip), vehicle: saline with Tween-80); 101 % of control under setting [5]; 105 % of control under setting [6]; 100 % of control under setting [7].
In the case of `O=c1nc2c3[nH]cnc3ncn2o1`, the T/C (dose: 12.5 mg/kg/injection, schedule: Q01DX009 (ip), vehicle: Klucel (hydroxypropylcellulose) (HPC)) is 101 % of control; the T/C (dose: 25.0 mg/kg/injection, schedule: Q01DX009 (ip), vehicle: Klucel (hydroxypropylcellulose) (HPC)) was 106 % of control; the T/C (dose: 50.0 mg/kg/injection, schedule: Q01DX009 (ip), vehicle: Klucel (hydroxypropylcellulose) (HPC)) is 101 % of control and 93 % of control; the T/C (dose: 100.0 mg/kg/injection, schedule: Q01DX009 (ip), vehicle: Klucel (hydroxypropylcellulose) (HPC)) is 105 % of control.
On to `CC(C)CC(=O)CC(C)(O)CCC(=O)c1ccoc1` (stereo unspecified), for which the T/C is, setting by setting: (dose: 25.0 mg/kg/injection, schedule: Q01DX005 (ip), vehicle: saline with Tween-80) 98 % of control; under setting [8], 104 % of control; under setting [9], 102 % of control.
For the compound `CNc1ccccc1C(=O)C(=O)O`, the T/C by setting is: under setting [5], 105 % of control; under setting [6], 102 % of control; under setting [7], 100 % of control.
On to `NNc1nncn2c1cc1ccccc12`, for which the T/C (dose: 6.25 mg/kg/injection, schedule: Q01DX009 (ip), vehicle: saline with Tween-80) was 98 % of control; the T/C (dose: 12.5 mg/kg/injection, schedule: Q01DX009 (ip), vehicle: saline with Tween-80) is 95 % of control; the T/C under setting [4] is 92 % of control.
For the compound `CC[C@@H]1C[C@H]2CC3c4[nH]c5ccc(O)cc5c4CCN(C2)C31`, the T/C (dose: 100.0 mg/kg/injection, schedule: Q01DX001 (ip), vehicle: saline with Tween-80) was 99 % of control.
Regarding `CC(/C=C/c1ccc(C)cc1)=N\NC(N)=O`, the T/C under setting [8] was 103 % of control, the T/C under setting [9] was 102 % of control and the T/C under setting [10] was 93 % of control.
In the same order, the values of `COc1ccc(/C=C/c2nnc(N)o2)cc1` are 100 % of control, 101 % of control and 105 % of control.
In the case of `CC(C)C(NN)C(=O)O` (stereo unspecified), the T/C is 98 % of control under setting [8] and 116 % of control under setting [9].
For `Cc1cc(=O)[nH][nH]1`, the T/C was 97 % of control (dose: 100.0 mg/kg/injection, schedule: Q04DX002 (ip), vehicle: saline with Tween-80); 100 % of control (dose: 200.0 mg/kg/injection, schedule: Q04DX002 (ip), vehicle: saline with Tween-80); 94 % of control (dose: 400.0 mg/kg/injection, schedule: Q04DX002 (ip), vehicle: saline with Tween-80).
With `O=C(CCS(=O)(=O)CCC(=O)c1ccc2ccccc2c1)c1ccc2ccccc2c1`, the T/C (dose: 25.0 mg/kg/injection, schedule: Q04DX003 (ip), vehicle: saline) was 102 % of control; the T/C (dose: 50.0 mg/kg/injection, schedule: Q04DX003 (ip), vehicle: saline) was 99 % of control; the T/C (dose: 100.0 mg/kg/injection, schedule: Q04DX003 (ip), vehicle: saline) is 92 % of control and 98 % of control; the T/C (dose: 400.0 mg/kg/injection, schedule: Q04DX003 (ip), vehicle: saline) is 88 % of control.
`S=c1c2ccccc2c(=S)n(-c2ccccc2)n1-c1ccccc1`: the T/C runs as follows: under setting [11], 91 % of control; under setting [12], 94 % of control; under setting [13], 92 % of control.
With `CCOC(=O)N1C=C(C(=O)OC)C(c2ccccc2)C(C(=O)OC)=C1`, the T/C runs as follows: under setting [8], 95 % of control; under setting [9], 106 % of control; under setting [10], 97 % of control.
As to `CC1NC(=O)C(NC(=O)OCc2ccccc2)COC(=O)C(C(C)C)NC(=O)C2CSSCC(NC1=O)C(=O)NC(C(C)C)C(=O)OCC(NC(=O)OCc1ccccc1)C(=O)NC(C)C(=O)N2` (stereo unspecified) (I: Cbz-SACV / II: Cbz-SACV; ester I:1-II:C, I:C-II:1; disulfide I:3-II:3; configuration not given here), the T/C is, setting by setting: (dose: 1.25 mg/kg/injection, schedule: Q01DX005 (ip), vehicle: Klucel (hydroxypropylcellulose) (HPC)) 101 % of control; (dose: 2.5 mg/kg/injection, schedule: Q01DX005 (ip), vehicle: Klucel (hydroxypropylcellulose) (HPC)) 101 % of control; (dose: 5.0 mg/kg/injection, schedule: Q01DX005 (ip), vehicle: Klucel (hydroxypropylcellulose) (HPC)) 99 % of control; (dose: 10.0 mg/kg/injection, schedule: Q01DX005 (ip), vehicle: Klucel (hydroxypropylcellulose) (HPC)) 96 % of control; (dose: 12.5 mg/kg/injection, schedule: Q01DX005 (ip), vehicle: Klucel (hydroxypropylcellulose) (HPC)) 96 % of control; (dose: 25.0 mg/kg/injection, schedule: Q01DX005 (ip), vehicle: Klucel (hydroxypropylcellulose) (HPC)) 96 % of control. In addition, the T/C under setting [14] was 99 % of control.
On to `O=C1NN2CCN=C2c2ccncc21`, for which the T/C was 97 % of control under setting [15], 103 % of control under setting [16] and 100 % of control under setting [17].
Consider `O=C1C(=O)c2ccc3c(c2-c2cc4c(cc21)OCO4)OCO3`, for which the T/C reads like this: under setting [11], 86 % of control; under setting [12], 87 % of control.
As to `COC(=O)C1CP2(C)(C)N(C)C(=O)N2C1(c1ccccc1)c1ccccc1` (stereo unspecified), the T/C runs as follows: under setting [14], 102 % of control; (dose: 100.0 mg/kg/injection, schedule: Q01DX005 (ip), vehicle: Klucel (hydroxypropylcellulose) (HPC)) 102 % of control; (dose: 200.0 mg/kg/injection, schedule: Q01DX005 (ip), vehicle: Klucel (hydroxypropylcellulose) (HPC)) 112 % of control.
Turning to `N#C/C(=C\c1ccc([N+](=O)[O-])o1)[N+](=O)[O-]`, the T/C under setting [18] is 103 % of control and the T/C under setting [19] was 93 % of control.
On to `COC(=O)c1ccc(C)c(NS(=O)(=O)c2ccc3c(c2)c(=O)sn3C)c1`, for which the T/C under setting [8] was 102 % of control, the T/C under setting [9] is 110 % of control and the T/C under setting [10] was 112 % of control.
In the case of `S=c1s/c(=C\c2ccccc2)c2nc3ccccc3n12`, the T/C by setting is: under setting [18], 90 % of control; under setting [19], 88 % of control.
As to `Cc1cc(S(=O)(=O)O)ccc1N=c1ccc2c(-c3ccccc3C(=O)O)c3ccc(Nc4ccccc4C)cc3oc-2c1`, the T/C by setting is: under setting [15], 88 % of control; under setting [16], 105 % of control; under setting [17], 91 % of control.
On to `CC(=O)CCC(=O)CC(=O)CCC(=O)Nc1cc(Cl)ccc1Cl`, for which the T/C is 107 % of control under setting [1], 106 % of control under setting [2] and 101 % of control under setting [3].
As for `N#CC(C(=O)C(N)=O)c1nc2ccccc2s1` (stereo unspecified), the T/C is 105 % of control under setting [8] and 101 % of control under setting [9].
For the compound `CNC1NC(=O)c2ccccc2N1Cc1ccc(F)cc1` (stereo unspecified), the T/C was 94 % of control under setting [11], 92 % of control under setting [12] and 94 % of control under setting [13].
As for `O=S(=O)(/C=C\c1ccccc1)/C=C/c1ccc(F)cc1`, the T/C under setting [8] was 111 % of control, the T/C under setting [9] was 97 % of control and the T/C under setting [10] is 94 % of control.
Take `COc1cccc2c1C(=O)c1c(O)c3c(c(O)c1C2=O)C[C@@](O)(C(=O)CSC(C)=O)C[C@@H]3OC1CC(N)C(O)C(C)O1` (stereo partly specified): the T/C (dose: 25.0 mg/kg/injection, schedule: Q01DX009 (ip), vehicle: water) is 108 % of control and 90 % of control.
Regarding `CNc1nc(=S)nc(-c2ccccc2)s1`, the T/C is, setting by setting: under setting [8], 100 % of control; under setting [9], 106 % of control; under setting [10], 92 % of control.
